Measurements from ChEMBL document CHEMBL3880391, “Tetrahydroquinoline derivatives as glycine antagonists” (2002).

Test system: Mus musculus
Experiment: Analgesic activity in mouse assessed as inhibition of formalin-induced pain by measuring time spent licking injected paw for first 5 minutes (early phase) and from 20 to 60 mins (late phase) administered orally 1 hr before formalin injection by formalin test
Assay type: functional
Conditions: not given

| Structure (SMILES) | ED50 |
| --- | --- |
| O=C([O-])C1CC(C2=CCN(c3ccccc3)C2=O)c2ccc(Cl)cc2N1.[Na+] (single isomer, unassigned) | 0.3 mg/kg |
| O=C([O-])C1CC(C2=CCN(c3ccccc3)C2=O)c2ccc(Cl)cc2N1.[Na+] (single isomer, unassigned; (-)) | 0.03 mg/kg |

Same assay, conditions: Mus musculus, po; read-out: ED50

| Structure (SMILES) | ED50 |
| --- | --- |
| O=C([O-])C1C/C(=C2\CCN(c3ccccc3)C2=O)c2ccc(Cl)cc2N1.[Na+] (single isomer, unassigned; (-)) | 0.14 mg/kg |

Test system: not listed separately
Experiment: Toxicity in orally dosed mouse assessed as induction of untoward effects
Assay type: organism-based
Conditions: in vivo, po

| Structure (SMILES) | Activity |
| --- | --- |
| CS(=O)(=O)Nc1ccc(N2CC=C(C3CC(C(=O)[O-])Nc4cc(Cl)ccc43)C2=O)cc1.[Na+] (racemic) | Non-Toxic |
| CC(=O)Nc1ccc(N2CC=C(C3CC(C(=O)O)Nc4cc(Cl)ccc43)C2=O)cc1 (racemic) | Non-Toxic |
| O=C([O-])C1C/C(=C2/CCN(c3ccccc3)C2=O)c2c(Cl)cc(Cl)cc2N1.[Na+] (centres undefined) | Non-Toxic |
| O=C([O-])C1C/C(=C2/NC(=O)N(c3ccccc3)C2=O)c2ccc(Cl)cc2N1.[Na+] (racemic) | Non-Toxic |
| O=C([O-])C1C/C(=C2\CCN(c3ccccc3)C2=O)c2ccc(Cl)cc2N1.[Na+] (single isomer, unassigned; (-)) | Non-Toxic |
| O=C([O-])C1CC(C2=CCN(c3ccccc3)C2=O)c2ccc(Cl)cc2N1.[Na+] (racemic) | Non-Toxic |
| CC(=O)Nc1ccc(N2CC/C(=C3\CC(C(=O)O)Nc4cc(Cl)ccc43)C2=O)cc1 (racemic) | Non-Toxic |
| O=C([O-])C1CC(C2=CCN(c3cccnc3)C2=O)c2ccc(Cl)cc2N1.[Na+] (racemic) | Non-Toxic |
| O=C([O-])C1CC(C2=CCN(c3ccccc3)C2=O)c2c(Cl)cc(Cl)cc2N1.[Na+] (racemic) | Non-Toxic |
| O=C([O-])C1C/C(=C2\CCN(c3cccnc3)C2=O)c2ccc(Cl)cc2N1.[Na+] (racemic) | Non-Toxic |
| O=C([O-])C1CC(C2=CCCN(c3ccccc3)C2=O)c2ccc(Cl)cc2N1.[Na+] (racemic) | Non-Toxic |
